We go through two compounds from patent US20250214966A1, “Crystalline Salt Form Of A SHP2 Inhibitor” (Array BioPharma Inc., priority 2022, published 2025).

What all share (assay type): physicochemical
A short description of data set [1]: Chemical stability (HPLC) after storage at 70° C. Here is the method:
Sample Preparation (Table 12): Crystalline (S)-1′-(6-((2-amino-3-chloropyridin-4-yl)thio)-1,2,4-triazin-3-yl)-1,3-dihydrospiro[indene-2,4′-piperidin]-1-amine free base hemihydrate (Form 1)—Control: Compound (15.46 mg) was weighed into a 50 mL amber volumetric flask. Methanol (approximately 35 mL) was added to the flask, sonicated 4 minutes with intermittent swirling, equilibrated to room temperature, brought to volume with methanol and mixed well with repeated inversions of the flask. Crystalline (S)-1′-(6-((2-amino-3-chloropyridin-4-yl)thio)-1,2,4-triazin-3-yl)-1,3-dihydrospiro[indene-2,4′-piperidin]-1-amine free base hemihydrate (Form 1)—70° C./5% relative humidity (“RH”)/1 week: Compound (14.83 mg) was weighed into a 50 mL amber volumetric flask. Methanol (approximately 35 mL) was added to the flask, sonicated 4 minutes with intermittent swirling, equilibrated to room temperature, brought to volume with methanol and mixed well with repeated inversions of the flask. Crystalline (S)-1′-(6-((2-amino-3-chloropyridin-4-yl)thio)-1,2,4-triazin-3-yl)-1,3-dihydrospiro[indene-2,4′-piperidin]-1-amine free base hemihydrate (Form 1)—70° C./75% RH/1 week: Compound (14.99 mg) was weighed into a 50 mL amber volumetric flask. Methanol (approximately 35 mL) was added to the flask, sonicated 4 minutes with intermittent swirling, equilibrated to room temperature, brought to volume with methanol and mixed well with repeated inversions to the flask.
Chemical stability (HPLC) (Table 12): A Waters Acquity H-Class instrument was used with a Waters XSelect HSS T3 Column (100 angstrom, 4.6×150 mm, 5 μm). The column temperature was set to 20° C., the UV wavelength set to 254 nm, the injection volume was 10 μL, with a flow rate of 1.0 mL/min. 10 mM ammonium acetate adjusted to pH 4.8 was used as a mobile phase A, and acetonitrile was used as mobile phase B. The gradient method was set up to achieve 15% mobile phase B at 0 minutes, 95% mobile phase B at 17 minutes—held until 22 minutes, 15% mobile phase.
70° C./75% RH Sample: about 20 mg of crystalline anhydrous (S)-1′-(6-((2-amino-3-chloropyridin-4-yl)thio)-1,2,4-triazin-3-yl)-1,3-dihydrospiro[indene-2,4′-piperidin]-1-amine mono succinate salt Form 1 was placed in an open amber vial in the 70° C./75% RH chamber 70° C./5% RH Sample: about 20 mg crystalline anhydrous (S)-1′-(6-((2-amino-3-chloropyridin-4-yl)thio)-1,2,4-triazin-3-yl)-1,3-dihydrospiro[indene-2,4′-piperidin]-1-amine mono succinate salt Form 1 was placed in a closed amber vial with the cap taped in a 70° C. chamber with uncontrolled humidity […]

A short description of data set [2]: Grinding assessment of form and crystallinity.
Data set [3] can be described thus: Thermal analysis TGA/DSC (Tables 12 and 13). To be noted: 10° C./minute heating rate. Here is the method: Thermogravimetric Analysis (“TGA”) (Table 12): Thermogravimetric analysis was conducted using a Discovery TGA (TA instruments) thermogravimetric analyzer. Samples of approximately 10 mg were weighed into aluminum pans and heated from ambient to 300° C. at 10° C./minute heating rate under nitrogen purge (10 mL/min for both sample chamber and balance).
Differential Scanning Calorimetry (“DSC”) (Table 12): DSC measurements were performed with Discovery DSC (TA instruments) equipped with a refrigerated cooling accessory. All the experiments were performed in standard/Tzero aluminum pans. The cell constant was determined using indium and temperature calibration was performed using indium and tin as standards. All the measurements were done under continuous dry nitrogen purge (50 mL/min). Approximately 1-5 mg of solid sample was weighed into a Tzero aluminum pan, sealed non-hermetically and heated from 0° C. to 250° C. at 10° C./min heating rate. The experimental data were analyzed using commercially available software (TA Universal Analysis 2000/Trios software, TA Instruments).
TGA/DSC (Table 13): A Simultaneous DSC/TGA instrument was used for the thermal analysis. Approximately 3.2 mg of the API was placed in an aluminum Tzero DSC pan was loaded into the instrument via autosampler. The sample was equilibrated to 35° C. in the instrument prior to analysis and was ramped to 400° C. at a ramp rate of 10° C./min. Dry nitrogen gas from the in-house supply was used.

Data set [4] in a line: Dynamic vapor sorption, hygroscopicity (Tables 12 and 13). To be noted: DVS. The procedure: Dynamic Vapor Sorption (“DVS”) (Table 12): The microbalance was calibrated using a 100 mg standard weight. The relative humidity sensor was calibrated at 5.0, 11.3, 32.8, 52.8, 75.3, and 84.3% RH (25° C.) using saturated salt solutions, as well as 80% RH (25° C.) using polyvinylpyrrolidone. 8-10 mg of the powder sample was placed in the platinum sample pan. There is no drying step with this method. The RH is first maintained at 30% RH, then decreased to 10% RH, and then 3% RH using the criteria of moving on when the weight change of the sample was <0.001 wt % in 5 min or after reaching a maximum equilibration time of 60 minutes. […] Again, the attainment of equilibrium was assumed when the weight change of the sample was <0.001 wt % in 5 min or by a maximum equilibration time of 120 minutes.
DVS (Table 13): Water sorption and desorption were analyzed with a DVS-Resolution. The microbalance is calibrated with a 100 mg standard weight on a monthly basis. About 5 mg of API was added to a translucent sample pan and placed inside chamber A of the DVS-Resolution. Percent relative humidity was held at 0% for 1 hour, and increased to 90% in 10% increments, then ramped back to 0% in 10% increments.

Counter-ions that a name gives are not always drawn. Like-named read-outs stand apart in the source and are kept apart here.

In the case of `Nc1nccc(Sc2cnc(N3CCC4(CC3)Cc3ccccc3[C@H]4N)nn2)c1Cl.Nc1nccc(Sc2cnc(N3CCC4(CC3)Cc3ccccc3[C@H]4N)nn2)c1Cl.O` [Example 2, (S)-1′-(6-((2-amino-3-chloropyridin-4-yl)thio)-1,2,4-triazin-3-yl)-1,3-dihydrospiro[indene-2,4′-piperidin]-1-amine Free Base Hemihydrate (Form 1)], the “Chemical Stability (70° C./5% RH), decrease in purity” value in data set [1] (70° C./5% RH, HPLC) was 0.25% decrease in purity. Moreover, the “Chemical Stability (70° C./75% RH), decrease in purity” value in data set [1] (70° C./75% RH, HPLC) stood at 0.09% decrease in purity. Also, in data set [2], the “Grinding Assessment” value is “No change in form or crystallinity”. Besides, in data set [3], the “Decomposition Onset (° C.)” value was approximately 240 °C and the “Dehyradtion Onset (° C.)” value is approximately 72 °C. In data set [4], the Hygroscopity entry is “Non-hygroscopic at 25 °C and exhibits less”.
Regarding `Nc1nccc(Sc2cnc(N3CCC4(CC3)Cc3ccccc3[C@H]4N)nn2)c1Cl` [Example 3, (S)-1′-(6-((2-amino-3-chloropyridin-4-yl)thio)-1,2,4-triazin-3-yl)-1,3-dihydrospiro[indene-2,4′-piperidin]-1-amine Mono Succinate Salt Form 1], in data set [1], the “Chemical Stability (70° C./5% RH), decrease in purity” value is 0.13% decrease in purity and the “Chemical Stability (70° C./75% RH), decrease in purity” value came to 0.19% decrease in purity. Also, the “Grinding Assessment” value in data set [2] was “Reduction in crystallinity”. Also, the “Decomposition Onset (° C.)” value in data set [3] was approximately 180 °C. The Hygroscopity entry in data set [4] is given as “not hygroscopic”. The “Hygroscopity, weight gain” value in data set [4] (up to 90% relative humidity) is on record as 0.9%.
